The values below are quoted from earlier work in patent US20100209480A1, “GALENICAL FORMULATIONS OF ORGANIC COMPOUNDS” (priority 2007, published 2010).

The conditions of this data set: drug substance.

In the case of `COCCCOc1cc(C[C@@H](C[C@H](N)[C@@H](O)C[C@H](C(=O)NCC(C)(C)C(N)=O)C(C)C)C(C)C)ccc1OC` [Aliskiren, 2(S),4(S),5(S),7(S)—N-(3-amino-2,2-dimethyl-3-oxopropyl)-2,7-di(1-methylethyl)-4-hydroxy-5-amino-8-[4-methoxy-3-(3-methoxy-propoxy)phenyl]-octanamide], the Hygroscopicity result is recorded as “highly hygroscopic”.
